Reference: the supplement of paper PMC11451515

Assays:
Conditions in all cases: 48 h
SEM cells [1] = test: AUC of viability dose-response curve (% viability x log10 dose units); higher = less sensitive
How it was run: (§1)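 Seeding of medium-adapted leukemia cells was at 500 or 1000 cells/well in 1536-well plates, followed by 48 h at 37°C with library compounds in DMSO at 11 threefold doses from 47 μM to 0.79 nM. CellTiter-Glo One luminescence was normalised per plate to DMSO and cell-free wells and fitted as a four-parameter log-logistic function of log10 dose. Area under the curve was integrated by trapezoidal rule, with curves exceeding full viability scaled and curves failing quality control removed.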

P12-Ichikawa [2] = test: as above
How it was run: as §1

SEM cells [3] = test: cell viability relative to DMSO control; higher = less cytotoxic
How it was run: (§2)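 Library compounds in DMSO were pin-dosed in an 11-point threefold series (47 μM to 0.79 nM) onto leukemia cells in 1536-well plates (5 μl). Plates held 500 cells/well of NOMO1 or SEM or 1000 cells/well of P12-Ichikawa, each adapted for at least four passages in each medium. Luminescence was read with CellTiter-Glo One after 48 h at 37°C. Viability means the per-plate percentage relative to DMSO wells, using cell-free wells as background.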

P12-Ichikawa [4] = test: as above
How it was run: as §2

NOMO1 [5] = test: as above
How it was run: as §2

NOMO1 [6] = test: AUC of viability dose-response curve (% viability x log10 dose units); higher = less sensitive
How it was run: as §1

Cc1ccccc1N1C(=O)c2cc([S+](N)(=O)[O-])c(Cl)cc2NC1C (stereo unspecified)
AUC of viability dose-response curve
Conditions	HPLM + 10% dialyzed FBS	RPMI 5 mM glucose + 10% FBS	RPMI 5 mM glucose + 10% dialyzed FBS
P12-Ichikawa [2]	449	460	450
SEM cells [1]	448	413	462

cell viability [%]
Conditions	NOMO1 [5]	P12-Ichikawa [4]	SEM cells [3]
HPLM + 10% dialyzed FBS, 0.000781 µM	123	134	117
HPLM + 10% dialyzed FBS, 0.00234 µM	109	121	108
HPLM + 10% dialyzed FBS, 0.00702 µM	121	119	105
HPLM + 10% dialyzed FBS, 0.0211 µM	117	132	107
HPLM + 10% dialyzed FBS, 0.0632 µM	106	125	122
HPLM + 10% dialyzed FBS, 0.19 µM	120	125	117
HPLM + 10% dialyzed FBS, 0.569 µM	110	109	28.7
HPLM + 10% dialyzed FBS, 1.71 µM	113	120	102
HPLM + 10% dialyzed FBS, 5.12 µM	37.9	119	112
HPLM + 10% dialyzed FBS, 15.4 µM	82.7	103	107
HPLM + 10% dialyzed FBS, 46.1 µM	123	110	103
RPMI 5 mM glucose + 10% FBS, 0.000781 µM	131	122	142
RPMI 5 mM glucose + 10% FBS, 0.00234 µM	113	121	120
RPMI 5 mM glucose + 10% FBS, 0.00702 µM	124	131	117
RPMI 5 mM glucose + 10% FBS, 0.0211 µM	116	129	109
RPMI 5 mM glucose + 10% FBS, 0.0632 µM	114	137	118
RPMI 5 mM glucose + 10% FBS, 0.19 µM	118	134	126
RPMI 5 mM glucose + 10% FBS, 0.569 µM	120	130	22.5
RPMI 5 mM glucose + 10% FBS, 1.71 µM	122	124	128
RPMI 5 mM glucose + 10% FBS, 5.12 µM	28.1	109	119
RPMI 5 mM glucose + 10% FBS, 15.4 µM	94.5	98.3	112
RPMI 5 mM glucose + 10% FBS, 46.1 µM	107	129	84.4
RPMI 5 mM glucose + 10% dialyzed FBS, 0.000781 µM	114	–	125
RPMI 5 mM glucose + 10% dialyzed FBS, 0.00234 µM	128	–	103
RPMI 5 mM glucose + 10% dialyzed FBS, 0.00702 µM	124	–	89.6
RPMI 5 mM glucose + 10% dialyzed FBS, 0.0211 µM	130	–	103
RPMI 5 mM glucose + 10% dialyzed FBS, 0.0632 µM	128	–	100
RPMI 5 mM glucose + 10% dialyzed FBS, 0.19 µM	119	–	97.5
RPMI 5 mM glucose + 10% dialyzed FBS, 0.569 µM	116	–	26.8
RPMI 5 mM glucose + 10% dialyzed FBS, 1.71 µM	119	–	126
RPMI 5 mM glucose + 10% dialyzed FBS, 5.12 µM	35.6	–	112
RPMI 5 mM glucose + 10% dialyzed FBS, 15.4 µM	77.8	–	108
RPMI 5 mM glucose + 10% dialyzed FBS, 46.1 µM	109	–	97.2

COC1=CC2=NC=CC(=C2C=C1)OC3=CN=C(NC(=O)C/4=C(C)/N(CC(C)(C)O)N(C4=O)C5=CC=CC=C5)C=C3
AUC of viability dose-response curve
Conditions	HPLM + 10% dialyzed FBS	RPMI 5 mM glucose + 10% FBS	RPMI 5 mM glucose + 10% dialyzed FBS
NOMO1 [6]	430	431	411
P12-Ichikawa [2]	425	414	420

cell viability [%]
Conditions	NOMO1 [5]	P12-Ichikawa [4]	SEM cells [3]
HPLM + 10% dialyzed FBS, 0.000781 µM	82	87.7	82.3
HPLM + 10% dialyzed FBS, 0.00234 µM	87.4	92.6	84.7
HPLM + 10% dialyzed FBS, 0.00702 µM	86.3	87.6	63.1
HPLM + 10% dialyzed FBS, 0.0211 µM	101	91.3	83.6
HPLM + 10% dialyzed FBS, 0.0632 µM	103	97.1	89.4
HPLM + 10% dialyzed FBS, 0.19 µM	107	96.4	86.1
HPLM + 10% dialyzed FBS, 0.569 µM	98.9	95	79.1
HPLM + 10% dialyzed FBS, 1.71 µM	96.4	91.6	52.1
HPLM + 10% dialyzed FBS, 5.12 µM	69.1	76.9	32.7
HPLM + 10% dialyzed FBS, 15.4 µM	88	85.7	36.4
HPLM + 10% dialyzed FBS, 46.1 µM	62.1	74.4	31
RPMI 5 mM glucose + 10% FBS, 0.000781 µM	78.8	89.4	108
RPMI 5 mM glucose + 10% FBS, 0.00234 µM	92	87.9	96.2
RPMI 5 mM glucose + 10% FBS, 0.00702 µM	88.6	89.7	91.6
RPMI 5 mM glucose + 10% FBS, 0.0211 µM	95	92.1	108
RPMI 5 mM glucose + 10% FBS, 0.0632 µM	91.7	92.1	103
RPMI 5 mM glucose + 10% FBS, 0.19 µM	91.7	91.9	99
RPMI 5 mM glucose + 10% FBS, 0.569 µM	91.2	89.5	82
RPMI 5 mM glucose + 10% FBS, 1.71 µM	98.7	90.5	60.9
RPMI 5 mM glucose + 10% FBS, 5.12 µM	85.6	70.1	29.3
RPMI 5 mM glucose + 10% FBS, 15.4 µM	93.4	90	36
RPMI 5 mM glucose + 10% FBS, 46.1 µM	81.8	63.6	31
RPMI 5 mM glucose + 10% dialyzed FBS, 0.000781 µM	73.7	81.1	74.1
RPMI 5 mM glucose + 10% dialyzed FBS, 0.00234 µM	86.8	88.7	82.1
RPMI 5 mM glucose + 10% dialyzed FBS, 0.00702 µM	91.6	89.8	76.7
RPMI 5 mM glucose + 10% dialyzed FBS, 0.0211 µM	88.2	98.5	77.8
RPMI 5 mM glucose + 10% dialyzed FBS, 0.0632 µM	97.7	96.6	79.4
RPMI 5 mM glucose + 10% dialyzed FBS, 0.19 µM	83.1	93.2	80
RPMI 5 mM glucose + 10% dialyzed FBS, 0.569 µM	96.6	94.9	60.5
RPMI 5 mM glucose + 10% dialyzed FBS, 1.71 µM	84.8	91.4	50.3
RPMI 5 mM glucose + 10% dialyzed FBS, 5.12 µM	77.2	78.8	32.8
RPMI 5 mM glucose + 10% dialyzed FBS, 15.4 µM	94.1	81.9	33.2
RPMI 5 mM glucose + 10% dialyzed FBS, 46.1 µM	64	61.2	27.4

COC[C@H]1OC(=O)C2=COC3=C2[C@@]1(C)\C4=C(C5CCC(=O)[C@@]5(C)C[C@H]4OC(C)=O)/C3=O (stereo partly specified)
SEM cells [1]
Conditions	AUC of viability dose-response curve
HPLM + 10% dialyzed FBS	397
RPMI 5 mM glucose + 10% FBS	432
RPMI 5 mM glucose + 10% dialyzed FBS	356

cell viability [%]
Conditions	NOMO1 [5]	P12-Ichikawa [4]	SEM cells [3]
HPLM + 10% dialyzed FBS, 0.000781 µM	84.5	93.1	72.1
HPLM + 10% dialyzed FBS, 0.00234 µM	111	98.8	84.9
HPLM + 10% dialyzed FBS, 0.00702 µM	107	104	96.8
HPLM + 10% dialyzed FBS, 0.0211 µM	36.5	11.9	17.5
HPLM + 10% dialyzed FBS, 0.0632 µM	111	108	99.5
HPLM + 10% dialyzed FBS, 0.19 µM	114	113	93
HPLM + 10% dialyzed FBS, 0.569 µM	104	107	93.6
HPLM + 10% dialyzed FBS, 1.71 µM	114	107	95.6
HPLM + 10% dialyzed FBS, 5.12 µM	108	110	85.6
HPLM + 10% dialyzed FBS, 15.4 µM	95	99.1	82
HPLM + 10% dialyzed FBS, 46.1 µM	102	101	95.3
RPMI 5 mM glucose + 10% FBS, 0.000781 µM	90.1	83.8	90.8
RPMI 5 mM glucose + 10% FBS, 0.00234 µM	92	99.7	107
RPMI 5 mM glucose + 10% FBS, 0.00702 µM	92.2	98.7	101
RPMI 5 mM glucose + 10% FBS, 0.0211 µM	19.6	12.2	14.7
RPMI 5 mM glucose + 10% FBS, 0.0632 µM	98.7	98.1	109
RPMI 5 mM glucose + 10% FBS, 0.19 µM	98.3	93.6	102
RPMI 5 mM glucose + 10% FBS, 0.569 µM	100	97.3	107
RPMI 5 mM glucose + 10% FBS, 1.71 µM	91.8	101	111
RPMI 5 mM glucose + 10% FBS, 5.12 µM	93.6	94.3	81.5
RPMI 5 mM glucose + 10% FBS, 15.4 µM	91.8	97	92.2
RPMI 5 mM glucose + 10% FBS, 46.1 µM	107	82	80.3
RPMI 5 mM glucose + 10% dialyzed FBS, 0.000781 µM	82	85.8	89.2
RPMI 5 mM glucose + 10% dialyzed FBS, 0.00234 µM	85.2	90	84.6
RPMI 5 mM glucose + 10% dialyzed FBS, 0.00702 µM	95.7	97.6	88.9
RPMI 5 mM glucose + 10% dialyzed FBS, 0.0211 µM	47.2	32.6	16.4
RPMI 5 mM glucose + 10% dialyzed FBS, 0.0632 µM	93.3	99.8	88.6
RPMI 5 mM glucose + 10% dialyzed FBS, 0.19 µM	94.1	101	85.1
RPMI 5 mM glucose + 10% dialyzed FBS, 0.569 µM	90.9	95.1	94.8
RPMI 5 mM glucose + 10% dialyzed FBS, 1.71 µM	94.6	96.4	82.9
RPMI 5 mM glucose + 10% dialyzed FBS, 5.12 µM	91.5	102	77.1
RPMI 5 mM glucose + 10% dialyzed FBS, 15.4 µM	87.5	93.7	63.5
RPMI 5 mM glucose + 10% dialyzed FBS, 46.1 µM	87.6	77	50.9
